Here are results for 86 molecules from a melting point compilation (Tetko et al.; mined from patent text by program, amines drawn as free bases though some values may be those of a salt).

As a reminder, the melting point is the temperature of the solid-liquid transition.

With `COC(=O)C(=O)O[C@H]1C[C@@H](C(=O)OC)[C@]2(C)CC[C@H]3C(=O)O[C@H](c4ccoc4)C[C@]3(C)[C@H]2C1=O`, the melting point was in the range of 241 to 244 °C. Next, `O=C(O)C(Cc1ccc(Cl)cc1Cl)c1c(Cl)cccc1Cl` (stereo unspecified): 220 to 222 °C.

`CCCc1nc(C)c(C(=O)OCC)n1Cc1ccc2oc(-c3ccccc3NS(=O)(=O)C(F)(F)F)c(Br)c2c1` had a melting point of 123 to 125 °C. As for `CCC(C)(C)N=C(Nc1cncnc1)c1ccc(Cl)cc1Cl`, the figure is 136 to 137 °C; as for `CC(=O)SC(CC(=O)c1ccc(Sc2ccc(C)cc2)cc1)C(=O)O` (stereo unspecified), 127 to 129 °C; as for `CC(C)(C)[Si](C)(C)Oc1ccc(S(N)(=O)=O)cc1`, 117 to 118 °C. As for `CC(C)(C)C(=O)Nc1ccccc1C(c1ccc(O)cc1)c1ccc(O)cc1`, the figure is 259 to 262 °C; as for `CN(C)CCN1C(=O)c2cscc2N(C)c2ccccc21`, 147 to 149 °C; as for `c1ccc(OCCSCc2nnc(-c3ccc4cc(CN5CCCCC5)ccc4c3)o2)cc1`, 93 to 94 °C.

Molecule `O=C1OC(O)c2cccc(Cl)c21` (stereo unspecified) gave a melting point of 140 to 145 °C. As for `CCOc1cc(C)c(C(=O)N=C(N)N)cc1S(C)(=O)=O`, the figure is 201 to 203 °C; as for `FC(F)c1nc2ccccc2n1-c1nc(NCc2ccccc2)nc(N2CCOCC2)n1`, 185 to 188 °C; as for `Cc1nc(N(C)Cc2ccco2)c2nc(-c3ccccc3)cc-2[nH]1`, 168 to 169 °C. For `OC(c1ccc(Cl)cc1)(c1cccnc1)c1ccc2noc(-c3cccc(Cl)c3)c2c1` (stereo unspecified), the melting point was found to be 199 °C. As for `COCCNC(=O)c1cccc(-c2cccc3oc(Cc4ccc(F)c(Cl)c4)cc23)c1`, the figure is 77 to 78 °C; as for `CC1(C)CNC(=O)C(=O)N1c1cc(F)cc2ccoc12`, 162 to 165 °C; as for `O=c1ccc(Br)cn1CC1(O)CCN(Cc2ccccc2)CC1`, 146 to 148 °C. `Clc1cc(-c2ccc3nnn(Cc4ccc5ncccc5c4)c3n2)ccn1` gave a melting point of 197 to 199 °C. As for `O=C(NCCOC1CCCCO1)c1cc([N+](=O)[O-])cc([N+](=O)[O-])c1N(CCO)CCCl` (stereo unspecified), the figure is 106 to 108 °C.

`COC(=O)c1cc(Cl)cc(N)c1O` showed a melting point of 65 to 67 °C. With `CC(C)(C(=O)O)c1nc2ccc(OCCCN3CCN(C(c4ccccc4)c4ccccc4)CC3)nn2c1Cl`, the melting point lay within 118 to 121 °C. `CCOC(=O)c1ccc(S(N)(=O)=O)cc1` came in with a melting point of 102 to 104 °C. Next, `CNC(=O)c1ccc(C2=NOC(c3cc(Cl)cc(Cl)c3)(C(F)(F)F)C2)cc1C` (stereo unspecified): 184 to 185 °C; `COc1ccccc1Oc1c(Cl)nc(SC)nc1NS(=O)(=O)c1ccc(C(C)(C)C)cc1`: 123 to 124 °C; `COc1ccc(-c2nc(C(F)(F)F)cn2-c2ccc(Br)cc2)cc1`: 140 to 141 °C.

The molecule `CCOC(=O)c1sc(Oc2ccc(Cl)cc2Cl)nc1C` gave a melting point of 71 to 73 °C. As for `Brc1cnc(-c2ccccc2)c2ccccc12`, the figure is 123 to 125 °C. As to `CC(=O)Nc1ccccc1C1OC(=O)NC1=O` (stereo unspecified), the melting point fell in the range of 197 to 198 °C.

Take `O=C(O)CCc1cc(Br)c(OC(=O)c2c3ccccc3nc3ccccc23)c(Br)c1`: the melting point lay within 240 to 242 °C. Next, `CCOC(=O)COc1nnc(-c2ccc3c(c2)CCO3)o1`: 103 to 104 °C. For the molecule `CCNC(=O)c1ccccc1Nc1nc(Nc2cc3c(cc2OC)CC(=O)N(CC)CC3)ncc1Cl`, the melting point lay in the range of 244 to 251 °C. Next, `O=C(O)/C=C/c1oc(-c2ccccc2)nc1-c1ccc(Cl)cc1`: 255 to 257 °C; `Cc1cc(-c2[nH]c3ccc(C#N)cc3c2C)cc(C)c1O`: 185 to 186 °C; `COc1ccc(CCNc2nc(O)c(C(=O)c3ccco3)c(O)n2)cc1OC`: more than 250 °C. As for `COC(=O)c1cc(Cl)c(C)c(Br)c1`, the figure is 53 to 55 °C; as for `O=C1c2ccccc2OCC1C(=O)C(F)(F)F` (stereo unspecified), 81 to 83 °C; as for `O=[N+]([O-])C(F)(CCc1nnc(C(F)(F)C(F)(F)F)o1)[N+](=O)[O-]`, 3 to 5 °C.

In turn, `O=[N+]([O-])c1cnc2ccccc2c1NCC12CCCN1CCC2` came in with a melting point of 155 to 158 °C. As for `COc1ccc(C2SCc3c(sc(N)c3C(=O)c3cccc4ccccc34)S2)cc1` (stereo unspecified), the figure is 132 to 134 °C; as for `CC(C)(C)c1ccc(-c2ccc3nncn3n2)cc1`, 270 to 275 °C; as for `CCCCN(NC(=O)c1ccccc1)C(=O)c1ccc(Cl)c(Cl)c1`, 234 to 236 °C.

Molecule `COc1cccc2c(=O)c3cc(F)ccc3oc12` displayed a melting point of 170 to 172 °C. Next, `O=C(CCc1ccccc1)N[C@H](Cc1cccc(Oc2ccccc2)c1)[C@@H](O)c1ccc(F)cc1` (racemic): 91 to 93 °C; `O=C(CCCCCCCc1ccccc1)NNC(=O)c1ccc(O)cc1`: 150 to 152 °C; `CCCc1nn(CC)c(CO)c1Cc1ccc(-c2ccccc2NS(=O)(=O)C(F)(F)F)cc1`: 59 to 64 °C. Next, `c1ccc(-c2ncnc3sc4c(c23)CCCC4)cc1`: 135 to 137 °C; `CNS(=O)(=O)c1ccccc1Nc1nc(Nc2ccc3c(c2)CCN(S(C)(=O)=O)CC3)ncc1Cl`: 199 to 201 °C; `O=C(O)C(CC1CCCCC1)c1ccc(OCc2ccccn2)cc1` (stereo unspecified): 100 to 103 °C.

`O=C(c1ccccc1)c1ccc2n1CCCCC2C(=O)O` (stereo unspecified) displayed a melting point of 163 to 165 °C. As for `CC1=NC(NC(=O)Nc2cccc(C)c2)C(=O)N(CC(=O)N2CC3CCC(CC3)C2)c2c(C)cccc21` (stereo unspecified), the figure is 177 to 179 °C; as for `COC(=O)c1nc2c(CBr)cccc2n1COCC[Si](C)(C)C`, 85 to 86 °C; as for `CCN(CC)CC(O)CSCC(=O)O` (stereo unspecified), 104 °C. As for `CC(CCC(=O)O)C1CCC2C3=CC=C4C(C)(C)C(O)CCC4(C)C3CCC21C` (stereo unspecified), the figure is 210 to 213 °C. Next, `CCOc1ccc(OCCN2CCN(c3cc(Cl)nnc3Cl)CC2)cc1`: 93 to 95 °C. In turn, `CCCC(=O)/C=C/c1cn(-c2ccccc2)nc1OCc1ccc(OCc2nc(-c3ccco3)oc2C)c(OC)c1` displayed a melting point of 167 to 168 °C. Next, `CS(=O)(=O)NCCCNC(=O)c1cccc(-c2cccc3oc(Cc4cccc(C(F)(F)F)c4)cc23)c1`: 79 to 80 °C; `CC(=CC(C)C)c1ccccc1NC(=O)c1cn(C)nc1C(F)(F)F`: 66 to 74 °C.

As for `COC(=O)C(C)(C)OCc1cc2cc(C(F)(F)F)ccc2n1S(=O)(=O)c1cccc2nc(C)sc12`, the melting point was 118 to 120 °C.

As to `COCCCSc1c2c(=O)n(C)c(=O)n(CC(C)C)c2cn1Cc1cccc2ccccc12`, the melting point fell in the range of 92 to 94 °C.

As for `CCCCC(O)CN1N=CCCC1c1ccc(Cl)c(Cl)c1` (stereo unspecified), the melting point lay within 80 to 81 °C. As for `COc1ccc(CN(C)CCCSc2ccc(NC(=O)c3cccc4c(=O)c5cccc(C)c5[nH]c34)cc2)cc1OC`, the figure is 158 °C; as for `Cc1cc(=O)c2cc(N)ccc2s1`, 265 °C. Next, `CCN(CC)Cc1cc(Nc2ccnc3cc(Cl)ccc23)c2ccccc2c1O`: 158 to 160 °C; `CC(=O)Nc1ccc2c(c1)C(=O)N(CCO)CO2`: 155 to 156 °C.

The molecule `CSc1c(C)c(-c2ccc(Cl)cc2Cl)nn1C` gave a melting point of 65 to 66 °C. As for `CCOc1ccc(-c2c(C)c3cc(O)ccc3n2Cc2ccc(OCCN3CCCCCC3)cc2)cc1`, the figure is 133 to 135 °C; as for `O=c1[nH]c(NCCCn2ccnc2)nc2c1ncn2C1CC(O)C(CO)O1` (stereo unspecified), 245 to 247 °C. Take `Cc1cccc(C)c1C1C(=O)CC(C)(C)CC1=O`: the melting point fell in the range of 177 to 186 °C. Next, `CC(=O)NC[C@H]1CN(c2ccc(C3CCN(C(=O)OC(C)(C)C)CC3)c(F)c2)C(=O)O1`: 144 to 146 °C; `COc1ccc(CBr)cc1-c1nsc2ccc(-n3c(=O)cc(C(F)(F)F)n(C)c3=O)cc12`: 158 to 160 °C; `COc1cccc(/C(=C/C=C/C(=O)Oc2ccc([N+](=O)[O-])cc2)c2ccccc2)c1`: 101 to 103 °C. The molecule `Cc1sc(-c2ccccc2)nc1CCOc1cc(COc2ccccc2CC(=O)O)on1` returned a melting point of 159 to 160 °C. `COc1cc2ncnc(N3CCC(C(C)CN4CCCS4(=O)=O)CC3)c2cc1OC` (stereo unspecified) displayed a melting point of 129 to 131 °C. As for `NS(=O)(=O)c1cccc(NC(=O)c2cnn3c(C(F)(F)F)cc(-c4ccc(C(F)(F)F)c(OCC(F)(F)F)c4)nc23)c1`, the figure is 233 °C; as for `COC(=O)CCCc1cc2cc(Cl)ccc2n1S(=O)(=O)c1ccc(C(C)C)cc1`, 95 to 97 °C; as for `COC(=O)COc1ccc(CCCO)cc1`, 47 to 48 °C. Next, `CCOC(=O)COc1ccc2c(c1[N+](=O)[O-])C(=O)CC2`: 137 to 139 °C; `CCCCNC(=O)NC(Cc1ccccc1)C(=O)Nc1c(F)cc(F)cc1F` (stereo unspecified): 217 to 218 °C; `CCN(C(=O)SC(C)(C)C)c1cn(-c2cccnc2)nc1Cl`: 91 to 93 °C. Next, `O=C(O)CCCOc1cc(C(F)(F)F)cc(C(F)(F)F)c1`: 85 to 87 °C. `CC(=O)N1c2ccccc2Sc2cc([N+](=O)[O-])ccc21` yielded a melting point of 144 to 146 °C. For the molecule `CC(C)(C)NC(=O)[C@@H]1C[C@H](Cl)CN1C(=O)[C@@H](O)[C@H](Cc1ccccc1)NC(=O)[C@H](CCS(N)(=O)=O)NC(=O)OCc1ccccc1`, the melting point was 115 to 122 °C. As for `COC1(c2cccc(OCc3ccc(-n4cnc(C)c4)cc3)c2)CCOCC1`, the figure is 120 to 121 °C; as for `Brc1cccc2c1ccc1ccccc12`, 90 to 91 °C. Next, `COC(=O)c1ccc(CNc2cc(C(=O)Nc3ccccc3)ccc2OC)cc1`: 170 to 172 °C. As for `NC(=O)c1cc(Cl)c(N[C@H]2CC[C@H](N)CC2)cc1F`, the figure is 160 to 162 °C.
